Assay results as given in US20120065165A1, “COMPOSITIONS AND METHODS OF TREATING ENDOTHELIAL DISORDERS” (ARGINETIX, INC, priority 2008, published 2012).

Assays:
rat aortic tissues = experiment: cGMP levels in aortic rings of old rats incubated with sildenafil and ABH (cGMP EIA); assay type: cell-based; conditions: sildenafil 0 nM
Protocol: The source of tissue was old (22 to 24 months) male Fischer 344 rats purchased from National Institute for Aging (NIA). The rats were anesthetized in an isoflurane chamber and euthanized. The entire length of the aorta (thoracic, arch, abdominal) were dissected out and cleaned free of connective tissue. These aorta were then sectioned into ˜3 mm long rings. Samples were collected from 2 rats and pooled. […] Rings were incubated in varying concentrations of sildenafil (0-2000 nM) and ABH (0-500 nM) prepared in 200 μL Krebs buffer for 10 min at 37° C. The rings were then snap frozen in liquid nitrogen following treatment. The next day, samples were homogenized in 200 μL 6% TCA buffer (prepared by adding TCA to DI water) at 4° C. for extraction of cyclic nucleotides. The samples were then centrifuged at 12,000 rpm for 5 min at 4° C. Protein pellets were re-dissolved in PBS to determine protein concentration, and supernatant was reserved for cGMP detection. […] ABH (MW 211.45): A stock solution of ABH at a concentration of 100 mM was prepared by dissolving 21.1 mg of ABH into 1 ml Krebs solution. This was used to prepare 5 ml of a 1 mM stock. 200 μL of the 1 mM solution were dispensed into column 12 of a 96-well plate. Six 2× dilutions were prepared in the plate. 200 μL Krebs were dispensed in column 5 to get a concentration range of 0-1000 nM (2× of final concentration). Sildenafil (MW 474.5): A stock solution of sildenafil at a concentartion of 100 mM was prepared by dissolving 47.4 mg of sildenafil into 1 ml Krebs solution; 5 ml of 2 mM stock was prepared from this. Row A received 200 μL of Krebs buffer (0 mM sildenafil), mixed well, and adjusted to a final volume of 200 μL. Next, 200 μL of the 2 mM sildenafil stock was dispensed into row H of the 96 well plate already containing the ABH dilutions ([…]). Six 2× dilutions were prepared from this to get the final concentration ranges for the two drugs. cGMP levels were determined with a cGMP kit (Amersham cGMP Enzyme immunoassay Biotrak (EIA) System Cat #RPN226) and run in accordance with the manufacture's recommendations. The assay uses a competitive fluorescent immunoassay format to measure levels of cGMP. It combines the use of a peroxidase-labelled cGMP conjugate, a specific antiserum which can be immobilized on to pre-coated microplates, and a one-pot stabilized substrate solution. […] In the absence of cGMP most of the HRP conjugate is bound to the antibody and yields a high fluorescence. Increasing concentrations of cGMP competitively decreases the binding of the HRP conjugate, decreasing the measured fluorescence (HRP activity). […] The plate was then incubated for 2 hrs at room temperature with shaking after which it is washed and the fluorescent substrate is added. The plate was incubated for an additional 10 min and then read on a Molecular Devices Gemini EM plate reader set at Ex 530 nm, Em 590 nm (endpoint mode). The signal is reported to be stable for up to 24 hrs, but was generally read within 2 hrs. […] These values were calculated based on the resultant ratio of fluorescence reading of sample divided by fluorescense reading with no cGMP (pmols/mg). For each concentration combination of sildenafil and ABH administered to cells, absorbance (OD at 450 nm) was measured. From these values, the absorbance adjusted for non-specific binding (NSB) for each sample (OD-NSB(B)) was determined from the absorbance (B) divided by the absorbance without cGMP (Bo). Using this value and the standard curve for cGMP, the log (fmol) is found and, after adjusting for the quantity of protein, the pmols of cGMP/mg protein is calculated.

eNOS = eNOS activity (L-arginine to L-citrulline) in human diabetic corpus cavernosum extracts; assay type: biochemical; conditions: 1 mM ABH added to diabetic penile extracts
From the text: In order to study the role of arginase in the development of these defects, corpus cavernosum tissue extracts were obtained from non-diabetic and diabetic men undergoing placement of a penile prosthesis for the management of their severe ED (Bivalacqua, et al., 2001 Biochem. Biophys. Res. Commun. 283: 923-927). […] Constitutive nitric oxide synthase activity (eNOS activity; calcium-dependent conversion of L-arginine to L-citrulline) is […] in human corporal tissue from diabetic patients vs. controls (See FIG. 7C), *P<0.05 when compare to controls; in the presence of the selective arginase inhibitor ABH, eNOS activity in human diabetic corpora caversosa is restored, **P<0.05 when compared to diabetic (Bivalacqua, et al., 2001 Biochem. Biophys. Res. Commun. 283: 923-927).
Diabetic corporal tissue extracts were prepared for the measurement of arginase activity by the production of urea in the presence of labeled arginine (FIG. 7B).

arginase I [1] = target: T1, arginase I (Homo sapiens, UniProt P05089); conditions: cited from earlier work
T1 sequence (P05089 1-322): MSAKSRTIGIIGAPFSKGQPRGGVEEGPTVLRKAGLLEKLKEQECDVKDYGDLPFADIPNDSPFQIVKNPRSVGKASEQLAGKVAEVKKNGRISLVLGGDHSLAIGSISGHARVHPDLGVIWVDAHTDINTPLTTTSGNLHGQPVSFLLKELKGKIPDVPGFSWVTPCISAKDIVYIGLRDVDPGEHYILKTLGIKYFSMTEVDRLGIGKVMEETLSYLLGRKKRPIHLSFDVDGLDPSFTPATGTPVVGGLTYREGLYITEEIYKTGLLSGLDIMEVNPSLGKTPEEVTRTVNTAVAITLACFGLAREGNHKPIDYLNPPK

arginase II = target: T2, arginase II (Homo sapiens, UniProt P78540); conditions: cited from earlier work
T2 sequence (P78540 23-354): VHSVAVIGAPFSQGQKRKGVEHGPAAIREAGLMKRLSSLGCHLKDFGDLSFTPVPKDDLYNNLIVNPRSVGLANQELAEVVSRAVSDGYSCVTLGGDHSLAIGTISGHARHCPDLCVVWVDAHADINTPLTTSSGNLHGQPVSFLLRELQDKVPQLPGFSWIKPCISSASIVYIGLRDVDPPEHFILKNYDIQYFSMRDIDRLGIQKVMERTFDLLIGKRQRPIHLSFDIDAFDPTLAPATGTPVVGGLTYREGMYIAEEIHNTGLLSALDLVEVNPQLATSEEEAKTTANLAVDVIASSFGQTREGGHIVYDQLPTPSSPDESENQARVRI

arginase I [2] = conditions: tissue extracts from diabetic corpus cavernosa; cited from earlier work

Q: With N[C@@H](CCCCB(O)O)C(=O)O [ABH, 2(S)-Amino-6-boronohexanoic acid] as the compound, how does the “Theoretical response T(x,y) based on an additive effect” value (shortened to “Theoretical response T(x,y) based”) (rat aortic tissues; ABH 7.81 nM) read?
A: Its value is 0.34 pmol/mg.

Q: And the “pmols of cGMP/mg protein produced P(x,y)” value (rat aortic tissues; ABH 7.81 nM)?
A: The value was 0.34 pmols/mg.

Q: What about the “Theoretical response T(x,y) based” value (rat aortic tissues; ABH 31.25 nM) of the same compound?
A: Its value is 0.90 pmol/mg.

Q: And the “pmols of cGMP/mg protein produced P(x,y)” value (rat aortic tissues; ABH 31.25 nM)?
A: The value was 0.90 pmols/mg.

Q: What about the “Theoretical response T(x,y) based” value (rat aortic tissues; ABH 125 nM) of the same compound?
A: The value was 1.14 pmol/mg.

Q: What about the “pmols of cGMP/mg protein produced P(x,y)” value (rat aortic tissues; ABH 125 nM) of the same compound?
A: The value was 1.14 pmols/mg.

Q: And the “Theoretical response T(x,y) based” value (rat aortic tissues; ABH 500 nM)?
A: The value was 0.16 pmol/mg.

Q: What about the “pmols of cGMP/mg protein produced P(x,y)” value (rat aortic tissues; ABH 500 nM) of the same compound?
A: The value was 0.16 pmols/mg.

Q: What about the eNOS activity (eNOS) of the same compound?
A: The eNOS activity was “improved to levels that were comparable to those of control corpus cavernosum”.

Q: And the “potency as inhibitor of arginase I” value (arginase I [1])?
A: Its value is “most potent inhibitor”.

Q: And the “potency as inhibitor of arginase II” value (arginase II)?
A: The value was “most potent inhibitor”.

Q: What about the “levels of cGMP” value (arginase I [2]) of the same compound?
A: The value was “increase levels of cGMP”.
